Measurements as given in the supplement of paper PMC10733146.

Tests used:
Test in all cases: viability relative to DMSO control (fraction); higher = less drug effect (more viable cells)
Settings in all cases: 48 h
[1] = system: primary ALL patient cells (S088)
In short: (§1)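 Compounds were pre-plated at five concentrations, one well each, in 384-well plates, and primary mononuclear tumour cells were plated on them at 4 × 10^4 cells per well. The cells, fresh or cryopreserved, had been Ficoll-isolated from blood or bone marrow or taken from processed lymph node. After 48 h at 37 °C and 5% CO2 in RPMI-1640 with penicillin/streptomycin, L-glutamine and human serum, viability was read as CellTiter-Glo luminescence relative to the median of 16 inner DMSO wells.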

[2] = system: primary AML patient cells (S025)
In short: as §1

[3] = system: primary FL patient cells (S087)
In short: as §1

[4] = system: primary AML patient cells (S002)
In short: as §1

[5] = system: primary AML patient cells (S017)
In short: as §1

[6] = system: primary AML patient cells (S060)
In short: as §1

[7] = system: primary AML patient cells (S079)
In short: as §1

[8] = system: primary FL patient cells (S022)
In short: as §1

[9] = system: primary AML patient cells (S019)
In short: as §1

[10] = system: primary AML patient cells (S091)
In short: as §1

[11] = system: primary MCL patient cells (S053)
In short: as §1

[12] = system: primary AML patient cells (S071)
In short: as §1

[13] = system: primary DLBCL patient cells (S082)
In short: as §1

[14] = system: primary AML patient cells (S072)
In short: as §1

[15] = system: primary AML patient cells (S009)
In short: as §1

[16] = system: primary AML patient cells (S089)
In short: as §1

[17] = system: primary ALL patient cells (S048)
In short: as §1

[18] = system: primary AML patient cells (S021)
In short: as §1

[19] = system: primary B-PLL patient cells (S016)
In short: as §1

[20] = system: primary AML patient cells (S055)
In short: as §1

Nc1ccn([C@@H]2O[C@H](CO)[C@@H](O)[C@@H]2O)c(=O)n1 [Cytarabine]
viability ([1]; 0.032 µM): 1.08
viability ([1]; 0.16 µM): 0.969
viability ([1]; 0.8 µM): 0.676
viability ([1]; 4 µM): 0.304
viability ([1]; 20 µM): 0.138
viability ([2]; 0.032 µM): 1.02
viability ([2]; 0.16 µM): 0.877
viability ([2]; 0.8 µM): 0.649
viability ([2]; 4 µM): 0.324
viability ([2]; 20 µM): 0.112
viability ([3]; 0.032 µM): 1.03
viability ([3]; 0.16 µM): 1.02
viability ([3]; 0.8 µM): 0.959
viability ([3]; 4 µM): 0.747
viability ([3]; 20 µM): 0.628
viability ([4]; 0.032 µM): 1.04
viability ([4]; 0.16 µM): 0.899
viability ([4]; 0.8 µM): 0.607
viability ([4]; 4 µM): 0.317
viability ([4]; 20 µM): 0.26
viability ([5]; 0.032 µM): 1.11
viability ([5]; 0.16 µM): 1.07
viability ([5]; 0.8 µM): 1.15
viability ([5]; 4 µM): 0.665
viability ([5]; 20 µM): 0.303
viability ([6]; 0.032 µM): 1.09
viability ([6]; 0.16 µM): 1.02
viability ([6]; 0.8 µM): 1.01
viability ([6]; 4 µM): 0.505
viability ([6]; 20 µM): 0.132
viability ([7]; 0.032 µM): 1.07
viability ([7]; 0.16 µM): 1.01
viability ([7]; 0.8 µM): 0.781
viability ([7]; 4 µM): 0.297
viability ([7]; 20 µM): 0.0864
viability ([8]; 0.032 µM): 1.17
viability ([8]; 0.16 µM): 1.04
viability ([8]; 0.8 µM): 1.09
viability ([8]; 4 µM): 0.93
viability ([8]; 20 µM): 0.589
viability ([9]; 0.032 µM): 1.19
viability ([9]; 0.16 µM): 1.15
viability ([9]; 0.8 µM): 0.871
viability ([9]; 4 µM): 0.387
viability ([9]; 20 µM): 0.24
viability ([10]; 0.032 µM): 0.974
viability ([10]; 0.16 µM): 0.858
viability ([10]; 0.8 µM): 0.694
viability ([10]; 4 µM): 0.513
viability ([10]; 20 µM): 0.409
viability ([11]; 0.032 µM): 1.01
viability ([11]; 0.16 µM): 0.754
viability ([11]; 0.8 µM): 0.327
viability ([11]; 4 µM): 0.195
viability ([11]; 20 µM): 0.136
viability ([12]; 0.032 µM): 0.891
viability ([12]; 0.16 µM): 0.797
viability ([12]; 0.8 µM): 0.64
viability ([12]; 4 µM): 0.257
viability ([12]; 20 µM): 0.172
viability ([13]; 0.032 µM): 1.08
viability ([13]; 0.16 µM): 0.974
viability ([13]; 0.8 µM): 0.702
viability ([13]; 4 µM): 0.522
viability ([13]; 20 µM): 0.484
viability ([14]; 0.032 µM): 1.14
viability ([14]; 0.16 µM): 1.06
viability ([14]; 0.8 µM): 0.995
viability ([14]; 4 µM): 0.774
viability ([14]; 20 µM): 0.458
viability ([15]; 0.032 µM): 1.04
viability ([15]; 0.16 µM): 0.96
viability ([15]; 0.8 µM): 0.82
viability ([15]; 4 µM): 0.521
viability ([15]; 20 µM): 0.383
viability ([16]; 0.032 µM): 1.1
viability ([16]; 0.16 µM): 0.993
viability ([16]; 0.8 µM): 0.783
viability ([16]; 4 µM): 0.142
viability ([16]; 20 µM): 0.0678
viability ([17]; 0.032 µM): 0.974
viability ([17]; 0.16 µM): 0.862
viability ([17]; 0.8 µM): 0.561
viability ([17]; 4 µM): 0.154
viability ([17]; 20 µM): 0.0402
viability ([18]; 0.032 µM): 1.03
viability ([18]; 0.16 µM): 1.1
viability ([18]; 0.8 µM): 0.882
viability ([18]; 4 µM): 0.849
viability ([18]; 20 µM): 0.419
viability ([19]; 0.032 µM): 1.11
viability ([19]; 0.16 µM): 0.733
viability ([19]; 0.8 µM): 0.145
viability ([19]; 4 µM): 0.0425
viability ([19]; 20 µM): 0.0373
viability ([20]; 0.032 µM): 1.02
viability ([20]; 0.16 µM): 1.08
viability ([20]; 0.8 µM): 0.818
viability ([20]; 4 µM): 0.346
viability ([20]; 20 µM): 0.189

CS(=O)(=O)c1ccc(C(=O)Nc2ccc(Cl)c(-c3ccccn3)c2)c(Cl)c1 [Vismodegib]
viability ([1]; 0.024 µM): 0.762
viability ([1]; 0.12 µM): 0.764
viability ([1]; 0.6 µM): 0.779
viability ([1]; 3 µM): 0.797
viability ([1]; 15 µM): 0.862
viability ([2]; 0.024 µM): 0.963
viability ([2]; 0.12 µM): 0.984
viability ([2]; 0.6 µM): 0.955
viability ([2]; 3 µM): 0.89
viability ([2]; 15 µM): 0.902
viability ([3]; 0.024 µM): 0.918
viability ([3]; 0.12 µM): 0.898
viability ([3]; 0.6 µM): 0.914
viability ([3]; 3 µM): 0.92
viability ([3]; 15 µM): 0.929
viability ([4]; 0.024 µM): 0.854
viability ([4]; 0.12 µM): 0.923
viability ([4]; 0.6 µM): 0.862
viability ([4]; 3 µM): 0.957
viability ([4]; 15 µM): 0.87
viability ([5]; 0.024 µM): 0.901
viability ([5]; 0.12 µM): 0.922
viability ([5]; 0.6 µM): 0.907
viability ([5]; 3 µM): 0.927
viability ([5]; 15 µM): 0.955
viability ([6]; 0.024 µM): 0.945
viability ([6]; 0.12 µM): 0.966
viability ([6]; 0.6 µM): 0.97
viability ([6]; 3 µM): 0.971
viability ([6]; 15 µM): 0.997
viability ([7]; 0.024 µM): 0.897
viability ([7]; 0.12 µM): 0.894
viability ([7]; 0.6 µM): 0.899
viability ([7]; 3 µM): 0.871
viability ([7]; 15 µM): 0.818
viability ([8]; 0.024 µM): 0.868
viability ([8]; 0.12 µM): 0.958
viability ([8]; 0.6 µM): 0.886
viability ([8]; 3 µM): 0.911
viability ([8]; 15 µM): 0.971
viability ([9]; 0.024 µM): 0.903
viability ([9]; 0.12 µM): 0.997
viability ([9]; 0.6 µM): 0.855
viability ([9]; 3 µM): 0.873
viability ([9]; 15 µM): 0.989
viability ([10]; 0.024 µM): 0.973
viability ([10]; 0.12 µM): 0.901
viability ([10]; 0.6 µM): 0.997
viability ([10]; 3 µM): 0.996
viability ([10]; 15 µM): 0.893
viability ([11]; 0.024 µM): 0.915
viability ([11]; 0.12 µM): 0.932
viability ([11]; 0.6 µM): 0.893
viability ([11]; 3 µM): 0.9
viability ([11]; 15 µM): 1.05
viability ([12]; 0.024 µM): 0.865
viability ([12]; 0.12 µM): 0.899
viability ([12]; 0.6 µM): 0.879
viability ([12]; 3 µM): 0.906
viability ([12]; 15 µM): 0.891
viability ([13]; 0.024 µM): 0.89
viability ([13]; 0.12 µM): 0.939
viability ([13]; 0.6 µM): 0.915
viability ([13]; 3 µM): 0.933
viability ([13]; 15 µM): 1.07
viability ([14]; 0.024 µM): 0.969
viability ([14]; 0.12 µM): 0.954
viability ([14]; 0.6 µM): 0.903
viability ([14]; 3 µM): 0.902
viability ([14]; 15 µM): 0.927
viability ([15]; 0.024 µM): 0.913
viability ([15]; 0.12 µM): 0.918
viability ([15]; 0.6 µM): 0.944
viability ([15]; 3 µM): 0.942
viability ([15]; 15 µM): 0.939
viability ([16]; 0.024 µM): 0.87
viability ([16]; 0.12 µM): 0.881
viability ([16]; 0.6 µM): 0.93
viability ([16]; 3 µM): 0.98
viability ([16]; 15 µM): 0.642
viability ([17]; 0.024 µM): 0.921
viability ([17]; 0.12 µM): 0.941
viability ([17]; 0.6 µM): 0.933
viability ([17]; 3 µM): 0.948
viability ([17]; 15 µM): 1.1
viability ([18]; 0.024 µM): 0.893
viability ([18]; 0.12 µM): 0.888
viability ([18]; 0.6 µM): 0.886
viability ([18]; 3 µM): 0.858
viability ([18]; 15 µM): 0.808
viability ([19]; 0.024 µM): 0.862
viability ([19]; 0.12 µM): 0.917
viability ([19]; 0.6 µM): 0.921
viability ([19]; 3 µM): 0.857
viability ([19]; 15 µM): 0.92
viability ([20]; 0.024 µM): 0.914
viability ([20]; 0.12 µM): 0.927
viability ([20]; 0.6 µM): 0.931
viability ([20]; 3 µM): 0.925
viability ([20]; 15 µM): 0.964
